One test deals with STING pathway. Put plainly: IFN β reporter assay (HTRF, 2′3′-cGAMP-stimulated THP1 cells). The test is classed as cell-based, human. The settings on record: Homo sapiens, THP-1, THP1 cells, 5 μM 2′3′-cGAMP, IFN β secretion inhibition; class symbols; read-out: IFN β reporter activity IC50. The procedure: STING pathway deactivation by the compounds described herein was measured using THP1 cells. The THP1 Cells (obtained from ATCC, Cat #TIB-202) were maintained in RPMI-1640 (Gibco, Cat #22400105), 10% FBS, 1% Pen-Strep, 0.05 mM 2-mercaptoethanol. For STING activation, 2′3′-cGAMP (MW 718.38, obtained from Invivogen) was used and prepared in serum-free RPMI-1640 media. Growth media: RPMI-1640 (HEPES, glutamine), 10% FBS, 1% Pen-Strep, 0.05 mM 2-mercaptoethanol. Assay media: RPMI-1640 (HEPES, glutamine), 0.5% FBS. 2′3′-cGAMP: Dissolve 2′3′-cGAMP to 10 mM stock in H2O.
The cells were prepared and seeded at 100K, 90 μL/well with assay media in cell culture plate (Greiner 655180). The compounds were added in 96-well tissue culture plates by Tecan D300e for a final concentration of 0.00137-3 μM.
Lipo2000/3000 and 2′3′-cGAMP stock solutions were diluted respectively in serum-free RPMI-1640 media. The diluted 2′3′-cGAMP and Lipo (V/V=1:1) were mixed and stood for 15 min at room temperature. 10 μL 2,3-cGAMP/Lipofectamine (10×) was transferred to the 96-well assay plate with a final 2′3′-cGAMP concentration of 5 μM. The cell plates were centrifuged at 1000 rpm for 5 min after incubating at 37° C., 5% CO2 overnight.
All reagents (human IFN beta kit, Cisbio 62HIFNBPEG) were warmed to room temperature for at least 30 min before the assay. The instructions of the kit were followed to prepare the detection media. 14 μL of cell supernatants was transferred into their dedicated wells in 384-well plate. Then 2 μL of the activation reagent solution and 4 μL of the mixed antibody solution were added to all wells. The plate was sealed and incubated for 3 h at room temperature.
The HTRF signal was read in Envision (PerkinElmer). IFN β reporter activity was then measured. The calculated ratio is the signal at 665 nm/signal at 615 nm. IC50 values are calculated by using standard methods known in the art.
In general, IC50 refers to the concentration that gives 50% inhibition. As to `O=C(Nc1c[nH]c2cc(F)c(F)cc12)c1cnn2cc(Br)ccc12` [Example 59], the IC50 lay in the range of 200 to 1000 nM.
On to `O=C(Nc1c[nH]c2ccc(F)cc12)c1n[nH]c2cc(N3CCOCC3)ccc12` [Example 60, N-(5-fluoro-1H-indol-3-yl)-6-morpholino-1H-indazole-3-carboxamide], for which the IC50 lay within 200 to 1000 nM.
On the same count and under the same terms, as for `CCCCc1ccc2c(C(=O)Nc3c[nH]c4ccc(F)cc34)n[nH]c2c1` [Example 61], the figure is 50 to 200 nM; as for `O=C(Nc1c[nH]c2ccc(F)cc12)c1n[nH]c2cc(Oc3ccncc3)ccc12` [Example 62], more than 1000 nM.
Same read-out and setting: the value for `O=C(Nc1c[nH]c2cc(F)c(F)cc12)c1n[nH]c2ccccc12` [Example 63] was 50 to 200 nM; that for `O=C(Nc1c[nH]c2cc(F)c(F)cc12)c1c[nH]c2ccccc12` [Example 64] was 50 to 200 nM; that for `O=C(Nc1c[nH]c2cc(F)c(F)cc12)c1cc2ccccc2[nH]1` [Example 65] was less than 50 nM.
`O=C(Nc1c[nH]c2ccc(F)cc12)c1cnn2cc(C(F)(F)F)ccc12` [Example 66]: the IC50 lay within 200 to 1000 nM.
Still for that read-out and setting: as for `O=C(Nc1c[nH]c2cc(F)c(F)cc12)c1n[nH]c2ncc(Br)cc12` [Example 68], the figure is 50 to 200 nM; as for `O=C(Nc1c[nH]c2ccc(F)cc12)c1n[nH]c2nc(OCC(F)(F)F)ccc12` [Example 69], 50 to 200 nM.
On the same count and under the same terms, the value for `O=C(Nc1c[nH]c2cc(F)c(F)cc12)c1n[nH]c2nc(OCC(F)(F)F)ccc12` [Example 70] was 50 to 200 nM.
The same measure, in the same setting: as for `Cn1cc(C(=O)Nc2c[nH]c3ccc(F)cc23)c2ccc(C3=CCOCC3)cc21` [Example 72], the figure is 50 to 200 nM; as for `Cn1cc(C(=O)Nc2c[nH]c3ccc(F)cc23)c2ccc(C3CCOCC3)cc21` [Example 73], 50 to 200 nM.
On to `Cn1cc(C(=O)Nc2c[nH]c3ccc(F)cc23)c2ccc(OCC(F)(F)F)nc21` [Example 74], for which the IC50 fell in the range of 50 to 200 nM.
In the case of `O=C(Nc1c[nH]c2ccc(F)cc12)c1cc2ccc(C(F)(F)F)cc2[nH]1` [Example 78], the IC50 fell in the range of 50 to 200 nM.
Still for that read-out and setting: the value for `O=C(Nc1c[nH]c2cc(F)c(F)cc12)c1cc2ccc(C(F)(F)F)cc2[nH]1` [Example 79] was 50 to 200 nM; that for `Cn1cc(C(=O)Nc2c[nH]c3ccc(F)cc23)c2cc(F)c(C3=CCOCC3)cc21` [Example 80] was 50 to 200 nM.
For `Cn1cc(C(=O)Nc2c[nH]c3ccc(F)cc23)c2cc(F)c(C3CCOCC3)cc21` [Example 81], the IC50 is less than 50 nM.
Regarding `Cn1nc(C(=O)Nc2c[nH]c3ccccc23)c2ccc(C#N)cc21` [Example 86, 6-cyano-N-(1H-indol-3-yl)-1-methyl-indazole-3-carboxamide], the IC50 is more than 1000 nM.
As for `Cn1cc(C(=O)Nc2c[nH]c3ccc(C(=O)O)cc23)c2ccc(C(F)(F)F)cc21` [Example 87, 3-[[1-methyl-6-(trifluoromethyl)indole-3-carbonyl]amino]-1H-indole-5-carboxylic acid], the IC50 was more than 1000 nM.
On the same count and under the same terms, as for `O=C(O)c1ccc2c(C(=O)Nc3c[nH]c4ccc(F)cc34)n[nH]c2c1` [Example 88, 3-[(5-fluoro-1H-indol-3-yl)carbamoyl]-1H-indazole-6-carboxylic acid], the figure is more than 1000 nM.
Same read-out and setting: the value for `NC(=O)c1ccc2c(C(=O)N(CC(F)(F)F)c3c[nH]c4cc(F)ccc34)n[nH]c2c1` [Example 89, N-(6-fluoro-1H-indol-3-yl)-N-(2,2,2-trifluoroethyl)-1H-indazole-3,6-dicarboxamide] was 200 to 1000 nM; that for `Cn1cc(C(=O)Nc2c[nH]c3ccc(F)cc23)c2cc(F)c(CNCC(F)(F)F)cc21` [Example 91, 5-fluoro-N-(5-fluoro-1H-indol-3-yl)-1-methyl-6-[(2,2,2-trifluoroethylamino)methyl]indole-3-carboxamide] was 50 to 200 nM; that for `CN(Cc1cc2c(cc1F)c(C(=O)Nc1c[nH]c3ccc(F)cc13)cn2C)CC(F)(F)F` [Example 92, 5-fluoro-N-(5-fluoro-1H-indol-3-yl)-1-methyl-6-[[methyl(2,2,2-trifluoroethyl)amino]methyl]indole-3-carboxamide] was 50 to 200 nM.
The same measure, in the same setting: as for `O=C(Nc1c[nH]c2ccc(F)cc12)c1n[nH]c2cc(CNCC(F)(F)F)ccc12` [Example 93], the figure is 50 to 200 nM; as for `CN(C)Cc1cc2c(cc1F)c(C(=O)Nc1c[nH]c3ccc(F)cc13)cn2C` [Example 94], more than 1000 nM.
For the molecule `Cn1cc(C(=O)Nc2c[nH]c3ccc(F)cc23)c2cc(F)c(CN3CCOCC3)cc21` [Example 95], the IC50 lay in the range of 200 to 1000 nM.
The same measure, in the same setting: as for `Cn1cc(C(=O)Nc2c[nH]c3ccc(F)cc23)c2cc(F)c(CNC(C)(C)C)cc21` [Example 96], the figure is more than 1000 nM; as for `Cn1cc(C(=O)Nc2c[nH]c3ccc(F)cc23)c2cc(F)c(CNCCC(F)(F)F)cc21` [Example 97, 5-fluoro-N-(5-fluoro-1H-indol-3-yl)-1-methyl-6-[(3,3,3-trifluoropropylamino)methyl]indole-3-carboxamide], 50 to 200 nM.
For the molecule `Cn1cc(C(=O)Nc2c[nH]c3ccc(F)cc23)c2cc(F)c(CN3CCC(F)(F)CC3)cc21` [Example 98], the IC50 was less than 50 nM.
Consider `Cn1cc(C(=O)Nc2c[nH]c3ccc(F)cc23)c2cc(F)c(CN3CCCCC3)cc21` [Example 99], for which the IC50 is more than 1000 nM.
Same read-out and setting: as for `Cn1cc(C(=O)Nc2c[nH]c3ccc(F)cc23)c2cc(F)c(CNC3CCC(F)(F)CC3)cc21` [Example 100], the figure is 50 to 200 nM.
On the same count and under the same terms, the value for `Cn1cc(C(=O)Nc2c[nH]c3ccc(F)cc23)c2cc(F)c(CN3CCN(CC(F)(F)F)CC3)cc21` [Example 101] was 50 to 200 nM.
Same read-out and setting: the value for `Cn1cc(C(=O)Nc2c[nH]c3ccc(F)cc23)c2cc(F)c(CN3CCC(F)CC3)cc21` [Example 102] was 200 to 1000 nM; that for `Cn1cc(C(=O)Nc2c[nH]c3ccc(F)cc23)c2cc(F)c(CNCC(F)F)cc21` [Example 103] was 50 to 200 nM.
As for `C[C@H](NCc1cc2c(cc1F)c(C(=O)Nc1c[nH]c3ccc(F)cc13)cn2C)C(F)(F)F` [Example 104], the IC50 is less than 50 nM.
On the same count and under the same terms, as for `C[C@@H](NCc1cc2c(cc1F)c(C(=O)Nc1c[nH]c3ccc(F)cc13)cn2C)C(F)(F)F` [Example 105], the figure is less than 50 nM; as for `Cn1cc(C(=O)Nc2c[nH]c3cc(F)c(F)cc23)c2cc(F)c(CNCC(F)(F)F)cc21` [Example 106], less than 50 nM.
Still for that read-out and setting: the value for `Cn1cc(C(=O)Nc2c[nH]c3ccc(N4CCNCC4=O)cc23)c2ccc(C(F)(F)F)cc21` [Example 108, 1-methyl-N-[5-(2-oxopiperazin-1-yl)-1H-indol-3-yl]-6-(trifluoromethyl)indole-3-carboxamide] was more than 1000 nM.
Same read-out and setting: the value for `CNCc1ccc2[nH]cc(NC(=O)c3cn(C)c4cc(C(F)(F)F)ccc34)c2c1` [Example 110, 1-methyl-N-(5-((methylamino)methyl)-1H-indol-3-yl)-6-(trifluoromethyl)-1H-indole-3-carboxamide] was more than 1000 nM; that for `CN(C)Cc1ccc2[nH]cc(NC(=O)c3cn(C)c4cc(C(F)(F)F)ccc34)c2c1` [Example 111, N-(5-((dimethylamino)methyl)-1H-indol-3-yl)-1-methyl-6-(trifluoromethyl)-1H-indole-3-carboxamide] was more than 1000 nM.

Staying with this test, now noted: Homo sapiens, THP-1, read-out: IFN β reporter activity IC50.
With `O=C(Nc1c[nH]c2ccc(F)cc12)c1cn(C2CC2)c2cc(C(F)(F)F)ccc12` [Example 67, 1-cyclopropyl-N-(5-fluoro-1H-indol-3-yl)-6-(trifluoromethyl)indole-3-carboxamide], the IC50 is less than 50 nM.
On to `Cn1cc(C(=O)Nc2c[nH]c3ccc(F)cc23)c2ccc(Cl)nc21` [Example 71], for which the IC50 is 50 to 200 nM.
On the same count and under the same terms, the value for `O=C(Nc1c[nH]c2ccc(F)cc12)c1cn([C@@H]2CCOC2)c2cc(C(F)(F)F)ccc12` [Example 76] was 200 to 1000 nM; that for `O=C(Nc1c[nH]c2ccc(F)cc12)c1cn([C@H]2CCOC2)c2cc(C(F)(F)F)ccc12` [Example 77] was 50 to 200 nM.
On the same count and under the same terms, the value for `N#Cc1ccc2[nH]cc(NC(=O)c3cn(C4COC4)c4cc(C5=CCOCC5)c(F)cc34)c2c1` [Example 112, N-(5-cyano-1H-indol-3-yl)-6-(3,6-dihydro-2H-pyran-4-yl)-5-fluoro-1-(oxetan-3-yl)indole-3-carboxamide] was 50 to 200 nM; that for `O=C(Nc1c[nH]c2ccc(F)cc12)c1cn(C2CNC2)c2cc(C(F)(F)F)ccc12` [Example 113, 1-(azetidin-3-yl)-N-(5-fluoro-1H-indol-3-yl)-6-(trifluoromethyl)indole-3-carboxamide] was more than 1000 nM.
On the same count and under the same terms, the value for `CN1CC(n2cc(C(=O)Nc3c[nH]c4ccc(F)cc34)c3ccc(C(F)(F)F)cc32)C1` [Example 114, N-(5-fluoro-1H-indol-3-yl)-1-(1-methylazetidin-3-yl)-6-(trifluoromethyl)indole-3-carboxamide] was more than 1000 nM.

These data come from patent US20240002368A1 (QILU REGOR THERAPEUTICS INC., priority 2020, published 2024).
